Assay results as given in the supplement of paper PMC10307832.

Key:
Assay in all cases: relative viability (nuclei count vs DMSO), 5 days (fraction); higher = more cells survive
Everolimus + Phenformin = compound: CO[C@H]1C[C@@H]2CC[C@@H](C)[C@@](O)(O2)C(=O)C(=O)N2CCCC[C@H]2C(=O)O[C@H]([C@H](C)C[C@@H]2CC[C@@H](OCCO)[C@H](OC)C2)CC(=O)[C@H](C)/C=C(\C)[C@@H](O)[C@@H](OC)C(=O)[C@H](C)C[C@H](C)/C=C/C=C/C=C/1C [Everolimus] + N=C(N)NC(=N)NCCc1ccccc1 [Phenformin] (partner 250 µM)
Outline: (§1)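 Five library-drug doses in √10 steps were combined with a fixed anchor-drug dose, or a single drug was given alone, by pin tool to lung cancer cell lines in 1536-well plates the day after seeding. Nuclei were stained and counted after 5 days. Relative viability is the nuclei count in treated wells over that in vehicle wells, taken as the median of duplicate plates.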

Everolimus + Crizotinib = compound: CO[C@H]1C[C@@H]2CC[C@@H](C)[C@@](O)(O2)C(=O)C(=O)N2CCCC[C@H]2C(=O)O[C@H]([C@H](C)C[C@@H]2CC[C@@H](OCCO)[C@H](OC)C2)CC(=O)[C@H](C)/C=C(\C)[C@@H](O)[C@@H](OC)C(=O)[C@H](C)C[C@H](C)/C=C/C=C/C=C/1C [Everolimus] + C[C@@H](Oc1cc(-c2cnn(C3CCNCC3)c2)cnc1N)c1c(Cl)ccc(F)c1Cl [Crizotinib] (partner 1 µM)
Outline: as §1

Everolimus + OSI-027 = compound: CO[C@H]1C[C@@H]2CC[C@@H](C)[C@@](O)(O2)C(=O)C(=O)N2CCCC[C@H]2C(=O)O[C@H]([C@H](C)C[C@@H]2CC[C@@H](OCCO)[C@H](OC)C2)CC(=O)[C@H](C)/C=C(\C)[C@@H](O)[C@@H](OC)C(=O)[C@H](C)C[C@H](C)/C=C/C=C/C=C/1C [Everolimus] + COc1cccc2cc(-c3nc([C@H]4CC[C@H](C(=O)O)CC4)n4ncnc(N)c34)[nH]c12 [OSI-027] (partner 0.5 µM)
Outline: as §1

Everolimus + Trametinib = compound: CO[C@H]1C[C@@H]2CC[C@@H](C)[C@@](O)(O2)C(=O)C(=O)N2CCCC[C@H]2C(=O)O[C@H]([C@H](C)C[C@@H]2CC[C@@H](OCCO)[C@H](OC)C2)CC(=O)[C@H](C)/C=C(\C)[C@@H](O)[C@@H](OC)C(=O)[C@H](C)C[C@H](C)/C=C/C=C/C=C/1C [Everolimus] + CC(=O)Nc1cccc(-n2c(=O)n(C3CC3)c(=O)c3c(Nc4ccc(I)cc4F)n(C)c(=O)c(C)c32)c1 [Trametinib] (partner 0.02 µM)
Outline: as §1

For LC-2-ad, the relative viability (Everolimus + Phenformin; first compound 0.01 µM) was 0.54, the relative viability (Everolimus + Phenformin; first compound 0.03162 µM) was 0.502 and the relative viability (Everolimus + Phenformin; first compound 0.1 µM) was 0.54. The relative viability (Everolimus + Phenformin; first compound 0.3162 µM) was 0.516, the relative viability (Everolimus + Phenformin; first compound 1 µM) was 0.491 and the relative viability (Everolimus + Crizotinib; first compound 0.01 µM) was 0.542. The relative viability (Everolimus + Crizotinib; first compound 0.03162 µM) was 0.48, the relative viability (Everolimus + Crizotinib; first compound 0.1 µM) was 0.384 and the relative viability (Everolimus + Crizotinib; first compound 0.3162 µM) was 0.449. For the same cell line, the relative viability (Everolimus + Crizotinib; first compound 1 µM) was 0.417, the relative viability (Everolimus + OSI-027; first compound 0.01 µM) was 0.669 and the relative viability (Everolimus + OSI-027; first compound 0.03162 µM) was 0.7. It also gave a relative viability (Everolimus + OSI-027; first compound 0.1 µM) of 0.602, a relative viability (Everolimus + OSI-027; first compound 0.3162 µM) of 0.618 and a relative viability (Everolimus + OSI-027; first compound 1 µM) of 0.569. For the same cell line, the relative viability (Everolimus + Trametinib; first compound 0.01 µM) was 0.961, the relative viability (Everolimus + Trametinib; first compound 0.03162 µM) was 0.957 and the relative viability (Everolimus + Trametinib; first compound 0.1 µM) was 0.948. For the same cell line, the relative viability (Everolimus + Trametinib; first compound 0.3162 µM) was 0.964 and the relative viability (Everolimus + Trametinib; first compound 1 µM) was 0.891.
NCI-H522 showed a relative viability (Everolimus + Phenformin; first compound 0.01 µM) of 0.588, a relative viability (Everolimus + Phenformin; first compound 0.03162 µM) of 0.527 and a relative viability (Everolimus + Phenformin; first compound 0.1 µM) of 0.549. It also gave a relative viability (Everolimus + Phenformin; first compound 0.3162 µM) of 0.51, a relative viability (Everolimus + Phenformin; first compound 1 µM) of 0.503 and a relative viability (Everolimus + OSI-027; first compound 0.01 µM) of 0.658. For the same cell line, the relative viability (Everolimus + OSI-027; first compound 0.03162 µM) was 0.501, the relative viability (Everolimus + OSI-027; first compound 0.1 µM) was 0.617 and the relative viability (Everolimus + OSI-027; first compound 0.3162 µM) was 0.621. The relative viability (Everolimus + OSI-027; first compound 1 µM) was 0.591, the relative viability (Everolimus + Trametinib; first compound 0.01 µM) was 0.634 and the relative viability (Everolimus + Trametinib; first compound 0.03162 µM) was 0.55. The relative viability (Everolimus + Trametinib; first compound 0.1 µM) was 0.527, the relative viability (Everolimus + Trametinib; first compound 0.3162 µM) was 0.456 and the relative viability (Everolimus + Trametinib; first compound 1 µM) was 0.635.
Work on NCI-H1299 yielded a relative viability (Everolimus + Crizotinib; first compound 0.01 µM) of 0.953, a relative viability (Everolimus + Crizotinib; first compound 0.03162 µM) of 0.967 and a relative viability (Everolimus + Crizotinib; first compound 0.1 µM) of 0.968. For the same cell line, the relative viability (Everolimus + Crizotinib; first compound 0.3162 µM) was 0.936 and the relative viability (Everolimus + Crizotinib; first compound 1 µM) was 1.09.
NCI-H1395 was tested, and the relative viability (Everolimus + Phenformin; first compound 0.01 µM) was 0.386, the relative viability (Everolimus + Phenformin; first compound 0.03162 µM) was 0.398 and the relative viability (Everolimus + Phenformin; first compound 0.1 µM) was 0.425. For the same cell line, the relative viability (Everolimus + Phenformin; first compound 0.3162 µM) was 0.401, the relative viability (Everolimus + Phenformin; first compound 1 µM) was 0.371 and the relative viability (Everolimus + OSI-027; first compound 0.01 µM) was 0.596. The relative viability (Everolimus + OSI-027; first compound 0.03162 µM) was 0.555, the relative viability (Everolimus + OSI-027; first compound 0.1 µM) was 0.544 and the relative viability (Everolimus + OSI-027; first compound 0.3162 µM) was 0.482. The relative viability (Everolimus + OSI-027; first compound 1 µM) was 0.54, the relative viability (Everolimus + Trametinib; first compound 0.01 µM) was 0.724 and the relative viability (Everolimus + Trametinib; first compound 0.03162 µM) was 0.641. For the same cell line, the relative viability (Everolimus + Trametinib; first compound 0.1 µM) was 0.657, the relative viability (Everolimus + Trametinib; first compound 0.3162 µM) was 0.694 and the relative viability (Everolimus + Trametinib; first compound 1 µM) was 0.652.
NCI-H1563 was tested, and the relative viability (Everolimus + Phenformin; first compound 0.01 µM) was 0.658, the relative viability (Everolimus + Phenformin; first compound 0.03162 µM) was 0.661 and the relative viability (Everolimus + Phenformin; first compound 0.1 µM) was 0.657. For the same cell line, the relative viability (Everolimus + Phenformin; first compound 0.3162 µM) was 0.657, the relative viability (Everolimus + Phenformin; first compound 1 µM) was 0.592 and the relative viability (Everolimus + Crizotinib; first compound 0.01 µM) was 0.673. For the same cell line, the relative viability (Everolimus + Crizotinib; first compound 0.03162 µM) was 0.654, the relative viability (Everolimus + Crizotinib; first compound 0.1 µM) was 0.682 and the relative viability (Everolimus + Crizotinib; first compound 0.3162 µM) was 0.684. For the same cell line, the relative viability (Everolimus + Crizotinib; first compound 1 µM) was 0.692, the relative viability (Everolimus + OSI-027; first compound 0.01 µM) was 0.628 and the relative viability (Everolimus + OSI-027; first compound 0.03162 µM) was 0.645. The relative viability (Everolimus + OSI-027; first compound 0.1 µM) was 0.622, the relative viability (Everolimus + OSI-027; first compound 0.3162 µM) was 0.693 and the relative viability (Everolimus + OSI-027; first compound 1 µM) was 0.643.
In the case of NCI-H1648, the relative viability (Everolimus + OSI-027; first compound 0.01 µM) is reported as 0.247, the relative viability (Everolimus + OSI-027; first compound 0.03162 µM) is reported as 0.252 and the relative viability (Everolimus + OSI-027; first compound 0.1 µM) is reported as 0.268. The relative viability (Everolimus + OSI-027; first compound 0.3162 µM) was 0.281, the relative viability (Everolimus + OSI-027; first compound 1 µM) was 0.257 and the relative viability (Everolimus + Trametinib; first compound 0.01 µM) was 0.388. It also gave a relative viability (Everolimus + Trametinib; first compound 0.03162 µM) of 0.435, a relative viability (Everolimus + Trametinib; first compound 0.1 µM) of 0.395 and a relative viability (Everolimus + Trametinib; first compound 0.3162 µM) of 0.307. The relative viability (Everolimus + Trametinib; first compound 1 µM) was 0.325.
With NCI-H1703 the relative viability (Everolimus + Crizotinib; first compound 0.01 µM) was 0.344, the relative viability (Everolimus + Crizotinib; first compound 0.03162 µM) was 0.316 and the relative viability (Everolimus + Crizotinib; first compound 0.1 µM) was 0.276. The relative viability (Everolimus + Crizotinib; first compound 0.3162 µM) was 0.395 and the relative viability (Everolimus + Crizotinib; first compound 1 µM) was 0.454.
In the case of NCI-H1793, the relative viability (Everolimus + Phenformin; first compound 0.01 µM) is reported as 0.294, the relative viability (Everolimus + Phenformin; first compound 0.03162 µM) is reported as 0.242 and the relative viability (Everolimus + Phenformin; first compound 0.1 µM) is reported as 0.329. The relative viability (Everolimus + Phenformin; first compound 0.3162 µM) was 0.313, the relative viability (Everolimus + Phenformin; first compound 1 µM) was 0.29 and the relative viability (Everolimus + OSI-027; first compound 0.01 µM) was 0.236. It also gave a relative viability (Everolimus + OSI-027; first compound 0.03162 µM) of 0.189, a relative viability (Everolimus + OSI-027; first compound 0.1 µM) of 0.185 and a relative viability (Everolimus + OSI-027; first compound 0.3162 µM) of 0.21. The relative viability (Everolimus + OSI-027; first compound 1 µM) was 0.185, the relative viability (Everolimus + Trametinib; first compound 0.01 µM) was 0.315 and the relative viability (Everolimus + Trametinib; first compound 0.03162 µM) was 0.247. For the same cell line, the relative viability (Everolimus + Trametinib; first compound 0.1 µM) was 0.247, the relative viability (Everolimus + Trametinib; first compound 0.3162 µM) was 0.312 and the relative viability (Everolimus + Trametinib; first compound 1 µM) was 0.228.
In the case of NCI-H2342, the relative viability (Everolimus + Phenformin; first compound 0.01 µM) is reported as 0.436, the relative viability (Everolimus + Phenformin; first compound 0.03162 µM) is reported as 0.34 and the relative viability (Everolimus + Phenformin; first compound 0.1 µM) is reported as 0.352. The relative viability (Everolimus + Phenformin; first compound 0.3162 µM) was 0.411, the relative viability (Everolimus + Phenformin; first compound 1 µM) was 0.49 and the relative viability (Everolimus + OSI-027; first compound 0.01 µM) was 0.501. It also gave a relative viability (Everolimus + OSI-027; first compound 0.03162 µM) of 0.456, a relative viability (Everolimus + OSI-027; first compound 0.1 µM) of 0.431 and a relative viability (Everolimus + OSI-027; first compound 0.3162 µM) of 0.515. It also gave a relative viability (Everolimus + OSI-027; first compound 1 µM) of 0.547, a relative viability (Everolimus + Trametinib; first compound 0.01 µM) of 0.649 and a relative viability (Everolimus + Trametinib; first compound 0.03162 µM) of 0.54. The relative viability (Everolimus + Trametinib; first compound 0.1 µM) was 0.482, the relative viability (Everolimus + Trametinib; first compound 0.3162 µM) was 0.468 and the relative viability (Everolimus + Trametinib; first compound 1 µM) was 0.583.
In the case of SW 900, the relative viability (Everolimus + Phenformin; first compound 0.01 µM) is reported as 0.43, the relative viability (Everolimus + Phenformin; first compound 0.03162 µM) is reported as 0.492 and the relative viability (Everolimus + Phenformin; first compound 0.1 µM) is reported as 0.371. The relative viability (Everolimus + Phenformin; first compound 0.3162 µM) was 0.324, the relative viability (Everolimus + Phenformin; first compound 1 µM) was 0.45 and the relative viability (Everolimus + OSI-027; first compound 0.01 µM) was 0.317. For the same cell line, the relative viability (Everolimus + OSI-027; first compound 0.03162 µM) was 0.273, the relative viability (Everolimus + OSI-027; first compound 0.1 µM) was 0.25 and the relative viability (Everolimus + OSI-027; first compound 0.3162 µM) was 0.35. The relative viability (Everolimus + OSI-027; first compound 1 µM) was 0.244, the relative viability (Everolimus + Trametinib; first compound 0.01 µM) was 0.604 and the relative viability (Everolimus + Trametinib; first compound 0.03162 µM) was 0.733. The relative viability (Everolimus + Trametinib; first compound 0.1 µM) was 0.536, the relative viability (Everolimus + Trametinib; first compound 0.3162 µM) was 0.717 and the relative viability (Everolimus + Trametinib; first compound 1 µM) was 0.432.
